Each structure is given as a SMILES string. Like-named read-outs stand apart in the source and are kept apart here.

Consider 22 molecules from patent US20230212172A1, “ARYLACETAMIDE ANALOGS OF PIPERAZINE-[1,2,4]TRIAZOLO[4,3-B]PYRIDAZINES” (University of Vermont and State Agricultural College, priority 2020, published 2023).

One experiment has as its system C. parvum. Nature of the experiment: In vitro inhibition of C. parvum development in HCT-8 cells. The following applies: Cryptosporidium parvum. Format: cell-based.
A further experiment relates to cryptosporidiosis. Conditions: cited from earlier work.
The mark [1] stands for this setting: HCT-8 cells, Table 4, read-out: EC50 for inhibition of C. parvum development in HCT-8 cells.
Where [2] appears, read: average EC50, C. parvum in HCT-8 cells, read-out: Cp HTC-8 Avg EC50.

As a reminder, the EC50 is the concentration that produces a half-maximal response. On to `O=C(Cc1ccccc1)N1CCN(c2ccc3nncn3n2)CC1` [Example 2819, 2-phenyl-1-(4-{[1,2,4]triazolo[4,3-b]pyridazin-6-yl}piperazin-1-yl)ethan-1-one], for which, in the experiment on C. parvum (setting [1]), the EC50 is 22000 nM.

For the molecule `C#Cc1ccc(CC(=O)N2CCN(c3ccc4nncn4n3)CC2)cc1` [Example 10046, 2-(4-ethynylphenyl)-1-(4-{[1,2,4]triazolo[4,3-b]pyridazin-6-yl}piperazin-1-yl)ethan-1-one], the half-maximal effective concentration (EC50) in the experiment on C. parvum (setting [1]) and with C. parvum (setting [2]) was 883 nM throughout.

With `O=C(Cc1c(F)c(F)c(F)c(F)c1F)N1CCN(c2ccc3nncn3n2)CC1` [Example 10090, 2-(2,3,4,5,6-pentafluorophenyl)-1-(4-{[1,2,4]triazolo[4,3-b]pyridazin-6-yl}piperazin-1-yl)ethan-1-one], the EC50 in the experiment with C. parvum (setting [1]) was more than 50000 nM. For the molecule `O=C(Cc1ccc(Br)c(Cl)c1)N1CCN(c2ccc3nncn3n2)CC1` [Example 10238, 2-(4-bromo-3-chlorophenyl)-1-(4-{[1,2,4]triazolo[4,3-b]pyridazin-6-yl}piperazin-1-yl)ethan-1-one], the EC50 with C. parvum (setting [1]) and with C. parvum (setting [2]) was 251 nM throughout. Consider `O=C(Cc1ccc(Cl)c(Br)c1)N1CCN(c2ccc3nncn3n2)CC1` [Example 10239, 2-(3-bromo-4-chlorophenyl)-1-(4-{[1,2,4]triazolo[4,3-b]pyridazin-6-yl}piperazin-1-yl)ethan-1-one], for which the EC50 in the experiment on C. parvum (setting [1]) and in the experiment on C. parvum (setting [2]) was 121 nM in each case. For `O=C(Cc1ccc(Br)c(F)c1)N1CCN(c2ccc3nncn3n2)CC1` [Example 10240, 2-(4-bromo-3-fluorophenyl)-1-(4-{[1,2,4]triazolo[4,3-b]pyridazin-6-yl}piperazin-1-yl)ethan-1-one], the concentration for a half-maximal effect (EC50) in the experiment with C. parvum (setting [1]) and with C. parvum (setting [2]) was 773 nM throughout. For `O=C(Cc1ccc(F)c(Br)c1)N1CCN(c2ccc3nncn3n2)CC1` [Example 10241, 2-(3-bromo-4-fluorophenyl)-1-(4-{[1,2,4]triazolo[4,3-b]pyridazin-6-yl}piperazin-1-yl)ethan-1-one], the EC50 in the experiment on C. parvum (setting [1]) and with C. parvum (setting [2]) was 232 nM throughout. Consider `CC(C)(C)OC(=O)NCCCc1ccc(CC(=O)N2CCN(c3ccc4nncn4n3)CC2)cc1` [Example 10242, Tert-butyl N-(3-{4-[2-oxo-2-(4-{[1,2,4]triazolo[4,3-b]pyridazin-6-yl}piperazin-1-yl)ethyl]phenyl}propyl)carbamate], for which the EC50 in the experiment with C. parvum (setting [1]) is more than 50000 nM. As for `O=C(Cc1ccc(Cl)c(Cl)c1)N1CCN(c2ccc3nnc(Cc4ccccc4)n3n2)CC1` [Example 10249, 1-(4-{3-benzyl-[1,2,4]triazolo[4,3-b]pyridazin-6-yl}piperazin-1-yl)-2-(3,4-dichlorophenyl)ethan-1-one], the EC50 in the experiment on C. parvum (setting [1]) is 16000 nM.

Regarding `O=C(Cc1ccc(Cl)c(Cl)c1)N1CCN(c2ccc3nnc(-c4ccnc(C(F)(F)F)c4)n3n2)CC1` [Example 10262, 2-(3,4-dichlorophenyl)-1-(4-{3-[2-(trifluoromethyl)pyridin-4-yl]-[1,2,4]triazolo[4,3-b]pyridazin-6-yl}piperazin-1-yl)ethan-1-one], the concentration for a half-maximal effect (EC50) in the experiment with C. parvum (setting [1]) worked out at 6110 nM. For the molecule `O=C(Cc1ccc2c(c1)OCO2)N1CCN(c2ccc3nncn3n2)CC1` [Example 10422, 2-(2H-1,3-benzodioxol-5-yl)-1-(4-{[1,2,4]triazolo[4,3-b]pyridazin-6-yl}piperazin-1-yl)ethan-1-one], the EC50 in the experiment on C. parvum (setting [1]) worked out at 10400 nM. Consider `O=C(Cc1ccc(S(F)(F)(F)(F)F)cc1)N1CCN(c2ccc3nncn3n2)CC1` [Example 10441, 2-[4-(pentafluoro-λ^6-sulfanyl)phenyl]-1-(4-{[1,2,4]triazolo[4,3-b]pyridazin-6-yl}piperazin-1-yl)ethan-1-one], for which, in the experiment with C. parvum (setting [1]), the EC50 was determined as 11500 nM. On to `O=C(Cc1cccc(S(F)(F)(F)(F)F)c1)N1CCN(c2ccc3nncn3n2)CC1` [Example 10442, 2-[3-(pentafluoro-λ^6-sulfanyl)phenyl]-1-(4-{[1,2,4]triazolo[4,3-b]pyridazin-6-yl}piperazin-1-yl)ethan-1-one], for which the EC50 with C. parvum (setting [1]) came out at 1120 nM. Take `O=C(Cc1cc(Cl)cc(C(F)(F)F)c1)N1CCN(c2ccc3nncn3n2)CC1` [Example 10479, 2-[3-chloro-5-(trifluoromethyl)phenyl] -1-(4-{[1,2,4]triazolo[4,3-b]pyridazin-6-yl}piperazin-1-yl)ethan-1-one]: the EC50 in the experiment on C. parvum (setting [1]) and in the experiment on C. parvum (setting [2]) was 407 nM in each case. Consider `O=C(Cc1ccc(C(F)(F)F)c(F)c1)N1CCN(c2ccc3nncn3n2)CC1` [Example 10480, 2-[3-fluoro-4-(trifluoromethyl)phenyl] -1-(4-{[1,2,4]triazolo[4,3-b]pyridazin-6-yl}piperazin-1-yl)ethan-1-one], for which the concentration for a half-maximal effect (EC50) in the experiment on C. parvum (setting [1]) came out at 2000 nM. On to `O=C(Cc1ccc(Cl)c(C(F)(F)F)c1)N1CCN(c2ccc3nncn3n2)CC1` [Example 10481, 2-[4-chloro-3-(trifluoromethyl)phenyl] -1-(4-{[1,2,4]triazolo[4,3-b]pyridazin-6-yl}piperazin-1-yl)ethan-1-one], for which the concentration for a half-maximal effect (EC50) in the experiment with C. parvum (setting [1]) and with C. parvum (setting [2]) was 272 nM in each case. Take `O=C(Cc1ccc(F)c(C(F)(F)F)c1)N1CCN(c2ccc3nncn3n2)CC1` [Example 10482, 2-[4-fluoro-3-(trifluoromethyl)phenyl] -1-(4-{[1,2,4]triazolo[4,3-b]pyridazin-6-yl}piperazin-1-yl)ethan-1-one]: the results for the EC50 in the experiment with C. parvum (setting [1]) and in the experiment on C. parvum (setting [2]) were 68.7 nM and 68.6 nM, respectively. With `O=C(Cc1cc(F)cc(Cl)c1)N1CCN(c2ccc3nncn3n2)CC1` [Example 10483, 2-(3-chloro-5-fluorophenyl)-1-(4-{[1,2,4]triazolo[4,3-b]pyridazin-6-yl}piperazin-1-yl)ethan-1-one], the EC50 in the experiment on C. parvum (setting [1]) and in the experiment on C. parvum (setting [2]) was 880 nM throughout. `O=C(Cc1ccc(C(F)(F)F)cc1)N1CCN(c2ccc3nncn3n2)CC1` [Example 10484, 1-(4-{[1,2,4]triazolo[4,3-b]pyridazin-6-yl}piperazin-1-yl)-2-[4-(trifluoromethyl)phenyl] ethan-1-one]: the EC50 with C. parvum (setting [1]) was found to be 5450 nM. The same measure, in the same setting: next, `O=C(Cc1cc(F)cc(F)c1)N1CCN(c2ccc3nncn3n2)CC1` [Example 10485, 2-(3,5-difluorophenyl)-1-(4-{[1,2,4]triazolo[4,3-b]pyridazin-6-yl}piperazin-1-yl)ethan-1-one]: 5660 nM. Regarding `CC(=O)Oc1ccccc1C(=O)Nc1ncc([N+](=O)[O-])s1` [Nitazoxanide], the efficacy in cryptosporidiosis result in the experiment with cryptosporidiosis (AIDS patients) is reported as “no more effective than placebo”; with cryptosporidiosis (children), “partial efficacy”. For the molecule `O=C(Cc1cc(C(F)(F)F)cc(C(F)(F)F)c1)N1CCN(c2ccc3nncn3n2)CC1` [SLU-0010495, 2-[3,5-bis(trifluoromethyl)phenyl]-1-(4-{[1,2,4]triazolo[4,3-b]pyridazin-6-yl}piperazin-1-yl)ethan-1-one], the EC50 with C. parvum (setting [2]) stood at 319 nM.
